Results reported in patent publication US10376481B2, “Compounds and methods for inhibiting NHE-mediated antiport in the treatment of disorders associated with fluid retention or salt overload and gastrointestinal tract disorders” (ARDELYX, INC, priority 2012, dated 2019).
One block for each compound: values may come before it.

Columns and labels:
human NHE3 = target: T1, human NHE3 (Homo sapiens, UniProt P48764); test: Cell-based assay of NHE-3 activity (persistent inhibition), human; details: PS120 fibroblasts stably expressing human NHE3, 60 min incubation then washout; for IC50: read-out: pIC50 (human Persistence assay) (converted)
T1 sequence (P48764 26-834): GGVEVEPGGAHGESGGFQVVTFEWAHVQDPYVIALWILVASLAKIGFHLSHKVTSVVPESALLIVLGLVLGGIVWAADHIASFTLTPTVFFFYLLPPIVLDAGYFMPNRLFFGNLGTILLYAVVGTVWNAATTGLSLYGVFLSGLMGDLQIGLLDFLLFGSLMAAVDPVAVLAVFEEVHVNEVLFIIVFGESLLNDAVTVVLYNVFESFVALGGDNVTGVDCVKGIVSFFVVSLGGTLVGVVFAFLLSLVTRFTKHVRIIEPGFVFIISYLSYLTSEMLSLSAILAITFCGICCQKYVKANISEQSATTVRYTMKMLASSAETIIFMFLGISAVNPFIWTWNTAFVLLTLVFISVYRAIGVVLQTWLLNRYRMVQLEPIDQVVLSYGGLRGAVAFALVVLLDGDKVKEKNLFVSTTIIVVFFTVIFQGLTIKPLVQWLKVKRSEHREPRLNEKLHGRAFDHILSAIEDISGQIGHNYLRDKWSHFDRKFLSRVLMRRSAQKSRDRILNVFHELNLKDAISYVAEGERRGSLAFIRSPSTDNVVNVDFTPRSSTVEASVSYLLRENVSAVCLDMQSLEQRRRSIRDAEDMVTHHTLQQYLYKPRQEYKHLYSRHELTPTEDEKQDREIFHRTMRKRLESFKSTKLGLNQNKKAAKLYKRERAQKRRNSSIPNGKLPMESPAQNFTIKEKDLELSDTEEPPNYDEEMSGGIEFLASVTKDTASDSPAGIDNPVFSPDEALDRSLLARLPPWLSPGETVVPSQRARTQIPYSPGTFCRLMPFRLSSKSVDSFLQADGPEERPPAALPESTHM
Description: The ability of compounds to inhibit human and rat NHE-3-mediated Na^+-dependent H^+ antiport after application and washout was measured using a modification of the pH sensitive dye method described above. PS120 fibroblasts stably expressing human NHE3 were obtained from Mark Donowitz (Baltimore, Md.). Opossum kidney (OK) cells were obtained from the ATCC and propagated per their instructions. The rat NHE-3 gene was introduced into OK cells via electroporation, and cells were seeded into 96 well plates and grown overnight. Medium was aspirated from the wells, cells were washed once with NaCl-HEPES buffer (100 mM NaCl, 50 mM HEPES, 10 mM glucose, 5 mM KCl, 2 mM CaCl2, 1 mM MgCl2, pH 7.4), then overlayed with NaCl-HEPES buffer containing 0-30 μM test compound. After a 60 min incubation at room temperature, the test drug containing buffer was aspirated from the cells. Following aspiration, cells were washed once with NaCl-HEPES buffer without drug, then incubated for 30 min at 37° C. with NH4Cl-HEPES buffer (20 mM NH4Cl, 80 mM NaCl, 50 mM HEPES, 5 mM KCl, 2 mM CaCl2, 1 mM MgCl2, pH 7.4) containing 5 μM BCECF-AM. Cells were washed once with Ammonium free, Na^+-free HEPES (100 mM choline, 50 mM HEPES, 10 mM glucose, 5 mM KCl, 2 mM CaCl2, 1 mM MgCl2, pH 7.4) and incubated in the same buffer for 10 minutes at room temperature to lower intracellular pH. NHE-3-mediated recovery of neutral intracellular pH was initiated (10 min after compound washout) by addition of Na-HEPES buffer. […] Changes in intracellular pH were monitored using a FLIPR Tetra® (Molecular Devices, Sunnyvale, Calif.) by excitation at λex 439 to 505 nm, and measuring BCECF fluorescence at λem 538 nm. The initial rate of the fluorescence ratio change was used as a measure of NHE-mediated Na^+/H^+ activity, and reported as the change in fluorescence ratio per minute. Initial rates were plotted as the average 2 or more replicates, and pIC50 values were estimated using GraphPad Prism.

[1] = test system: absorption of sodium from the intestinal lumen; test: Inhibition of intestinal sodium absorption: rat urinary sodium and fecal form 16 h post-dose; type: in vivo, Sprague-Dawley rats; details: oral gavage 10 mg/kg; for response vs control in vivo at 10 mg/kg: urine 16 h post-dose, read-out: uNa Result, uNa (% of vehicle); for FFS (fecal form score): 16 h post-dose, scale 1-5, group average
Method in brief: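 Eight-week-old Sprague-Dawley rats (n=6) dosed by oral gavage with compound or water vehicle, then kept in metabolic cages with chow and water ad libitum. At 16 h post-dose, urinary sodium measured by ion chromatography and expressed as percent of vehicle mean; fecal form scored 1–5 and averaged over two observations.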

Structure (SMILES): CN(C)[C@H]1Cc2ccc(F)cc2[C@@H]1Oc1ccc(S(=O)(=O)NCCOCCOCCNC(=O)NCCCCNC(=O)NCCOCCOCCNS(=O)(=O)c2ccc(O[C@H]3c4cc(F)ccc4C[C@@H]3N(C)C)cc2)cc1 [Example 22]
% inhibition (human Persistence assay) (human NHE3): A (NHE3 <40%)
IC50 (human NHE3): > 1000 nM
response vs control in vivo at 10 mg/kg [1]: > 75%

Structure (SMILES): O=C(NCCCCNC(=O)NCCOCCOCCNS(=O)(=O)c1ccc(O[C@H]2c3cc(Cl)cc(F)c3C[C@@H]2N2CC[C@@H](O)C2)cc1)NCCOCCOCCNS(=O)(=O)c1ccc(O[C@H]2c3cc(Cl)cc(F)c3C[C@@H]2N2CC[C@@H](O)C2)cc1 [Example 4, (S,S,R)—N,N′-(10,17-dioxo-3,6,21,24-tetraoxa-9,11,16,18-tetraazahexacosane-1,26-diyl)bis(4-((1S,2S)-6-chloro-4-fluoro-2-((R)-3-hydroxypyrrolidin-1-yl)-2,3-dihydro-1H-inden-1-yloxy)benzenesulfonamide)]
% inhibition (human Persistence assay) (human NHE3): B (40-70%)
IC50 (human NHE3): < 100 nM
FFS (fecal form score) [1]: 1
response vs control in vivo at 10 mg/kg [1]: > 75%

Structure (SMILES): CN(C)[C@H]1Cc2c(Cl)cc(Cl)cc2[C@@H]1Oc1ccc(S(=O)(=O)NCCOCCOCCNC(=O)CCC(C)(N)CCC(=O)NCCOCCOCCNS(=O)(=O)c2ccc(O[C@H]3c4cc(Cl)cc(Cl)c4C[C@@H]3N(C)C)cc2)cc1 [Example 11, 4-amino-N1,N7-bis(2-(2-(2-(4-((1S,2S)-4,6-dichloro-2-(dimethylamino)-2,3-dihydro-1H-inden-1-yloxy)phenylsulfonamido)ethoxy)ethoxy)ethyl)-4-methylheptanediamide]
% inhibition (human Persistence assay) (human NHE3): B (40-70%)
IC50 (human NHE3): < 100 nM
response vs control in vivo at 10 mg/kg [1]: 35 to 75%

Structure (SMILES): CN(C)[C@H]1Cc2c(Cl)cc(Cl)cc2[C@@H]1Oc1ccc(S(=O)(=O)NCCOCCOCCNC(=O)[C@H](O)[C@@H](O)C(=O)NCCOCCOCCNS(=O)(=O)c2ccc(O[C@H]3c4cc(Cl)cc(Cl)c4C[C@@H]3N(C)C)cc2)cc1 [Example 5, (2R,3R)—N1,N4-bis(2-(2-(2-(4-((1S,2S)-4,6-dichloro-2-(dimethylamino)-2,3-dihydro-1H-inden-1-yloxy)phenylsulfonamido)ethoxy)ethoxy)ethyl)-2,3-dihydroxysuccinamide]
% inhibition (human Persistence assay) (human NHE3): C (>70%)
IC50 (human NHE3): 100 to 1000 nM
FFS (fecal form score) [1]: 1
response vs control in vivo at 10 mg/kg [1]: < 35%

The next lines start with results.

% inhibition (human Persistence assay) (human NHE3): C (>70%)
IC50 (human NHE3): > 1000 nM
Structure (SMILES): O=C(NCCCCNC(=O)NCCOCCOCCNS(=O)(=O)c1ccc(O[C@H]2c3cc(Cl)cc(Cl)c3C[C@@H]2N2CCCCC2)cc1)NCCOCCOCCNS(=O)(=O)c1ccc(O[C@H]2c3cc(Cl)cc(Cl)c3C[C@@H]2N2CCCCC2)cc1 [Example 15]
response vs control in vivo at 10 mg/kg [1]: 35 to 75%

% inhibition (human Persistence assay) (human NHE3): C (>70%)
IC50 (human NHE3): > 1000 nM
Structure (SMILES): O=C(NCCCCNC(=O)NCCOCCOCCNS(=O)(=O)c1ccc(O[C@H]2c3ccccc3C[C@@H]2N2CCCCC2)cc1)NCCOCCOCCNS(=O)(=O)c1ccc(O[C@H]2c3ccccc3C[C@@H]2N2CCCCC2)cc1 [Example 14]
response vs control in vivo at 10 mg/kg [1]: 35 to 75%
